Entries after “also recorded” stand apart in the source; their conditions may differ.
Columns and labels:
DENV sNS1 secretion [1] = conditions: DENV-infected Vero cells; Flamand et al., 1999; cited from earlier work
DENV sNS1 secretion [2] = tested on: DENV sNS1 secretion
Description: Vero cells were infected with DENV-1 at an MOI of 1 for 2 h at 37° C. An uninfected control was included. At seven hours post infection, cells were either mock-treated or treated with D-threo-1-phenyl-2-palmitoylamino-3-pyrrolidino-1-propanol (P4; Calbiochem, San Diego, Calif.) at 2 or 5 μM, combined or not with 1 mM DMJ (Calbiochem, San Diego, Calif.). At 24 hours post infection, cells were washed and incubated for 1 h in methionine/cysteine-free DMEM before metabolically labeling proteins for 4 h in methionine/cysteine-free DMEM supplemented with a mix of ^35S-labeled methionine/cysteine. The NS1 protein was then immunoprecipitated from cell lysates prepared in 25 mM Tris-HCl pH 7.6, 150 mM NaCl, 1% NP-40, 1% sodium deoxycholate, 0.1% SDS, or from the supernatant, with anti-NS1 MAb 13A1 (kindly provided by Dr. Robert Putnak). Immunoprecipitated proteins were separated by SDS-PAGE and detected on an X-ray film.

Vero cells = conditions: 5 μM P4, Vero cells
DENV sNS1 protein = assay: Inhibition of DENV sNS1-mediated endothelial cell activation (E-selectin cell-based ELISA in HUVEC); parameters: species or system Dengue virus (DENV-1)
Description: Activation of endothelial cells by the DENV sNS1 protein has been monitored by the production of adhesion molecule E-selectine, as previously described (Kayal et al., 1999). Briefly, HUVEC cell monolayers were incubated with various concentrations of the purified sNS1 protein for different periods of time. Cells were washed once with warm M199 medium supplemented with 20% FCS and twice with serum-free M199 before fixation for 10 min in ice-cold PBS containing 4% paraformaldehyde. Cells were then rinsed with PBS and treated with a 10% bovine serum albumin (BSA) solution in PBS to reduce non-specific binding of antibodies. Plates were then sequentially incubated for 2 h at room temperature (RT) with primary anti-E-selectin monoclonal antibody (BBA2, R&D Systems, Minneapolis, Minn.) at a dilution of 1:2000 in PBS containing 5% BSA (PBS/BSA), and a secondary peroxidase-conjugated rabbit anti-mouse IgG (Sigma, St. Louis, Mo.) at a dilution of 1:4000 in PBS/BSA. After extensive washes in PBS/BSA and PBS alone, bound antibodies were detected using the TMB Microwell peroxidase substrate system (KPL). The reaction was stopped after 3-5 min by addition of 2.5 N sulfuric acid and the absorbance values were read at a wavelength of 450 nm. […]

[3] = tested on: TNF-α-mediated induction of E-selectin expression; assay: TNF-α-mediated induction of E-selectin expression in HUVEC (cell-based ELISA); parameters: species or system human; conditions: TNF-α 10 ng/ml pre-incubated with PMB

OC[C@H]1NC[C@@H](O)[C@@H](O)[C@@H]1O [DMJ, deoxymannojirymicin]
sNS1 secretion, DMJ alone (DENV sNS1 secretion [1]): impairs sNS1 secretion | sNS1 secretion, combination of P4 and DMJ (DENV sNS1 secretion [2]; P4 2 or 5 μM + DMJ 1 mM, DENV-infected Vero (kidney) cells): additional effect on P4 inhibition

CCCCCCCCCCCCCCCC(=O)N[C@H](CN1CCCC1)[C@H](O)c1ccccc1 [P4, D-threo-1-phenyl-2-palmitoylamino-3-pyrrolidino-1-propanol]
cell viability (Vero cells): without compromising cell viability | secretion of sNS1 (DENV sNS1 secretion [2]; P4 alone, DENV-infected Vero cells, MOI 1, effect stated at 5 μM P4): significantly reduced; also recorded: interferes with sNS1 secretion

polymyxin B [PMB]
expression of E-selectin in response to the sNS1 protein (DENV sNS1 protein; HUVEC pulse treated with sNS1 (10 μg/ml) pre-incubated with PMB 2 and 10 μg/ml, 15 min-6 h, fixed at 6 h): repressive effect | sNS1-induced HUVEC (endothelial cell) activation (DENV sNS1 protein; no detectable LPS in purified sNS1 preparations): very efficiently block endothelial cell activation by sNS1; also recorded: abrogated the ability of DENV sNS1 to activate HUVEC; also recorded: blocks sNS1-induced HUVEC activation | TNF-α-mediated induction of E-selectin expression [3]: did not show any effect

From patent US20090275499A1, “NONSTRUCTURAL PROTEIN NS1 AS A NOVEL THERAPEUTIC TARGET AGAINST FLAVIVIRUSES” (priority 2008, published 2009)
